{"source": "patent US20220016060A1", "about": "“USE OF SODIUM 2-(3-PENTYLPHENYL)ACETATE IN THE TREATMENT OF ALSTRÖM SYNDROME” (LIMINAL BIOSCIENCES LIMITED, priority 2018, published 2022)", "assay_type_in_all_cases": "in vivo, human", "key": {"ALMS patients [1]": {"system": "ALMS patients", "assay": "Cardiac MRI of myocardial fibrosis (SAX T1)", "conditions": "for Change from Baseline Basal SAX T1, Mean / Change from Baseline Basal SAX T1, Median / Change from Baseline Mid SAX T1, Mean / Change from Baseline Mid SAX T1, Median: 800 mg daily oral", "experimental": "The study was a Phase 2, single-centre, single-arm, open-label study of sodium 2-(3-pentylphenyl)acetate administered at a total daily oral dose of 800 mg for up to 72 weeks in subjects with ALMS was undertaken. The initial duration of the study was 24 weeks, and subjects were offered to enrol into an extension phase of 36 or 48 weeks. The schedule of study procedures for the enrolment, intervention, and assessments for participants is outlined in FIG. 1. Sodium 2-(3-pentylphenyl)acetate was formulated in soft gelatine capsules containing 200 mg of Sodium 2-(3-pentylphenyl)acetate (amorphous powder) per capsule, polyethylene glycol 400, National Formulary (NF), hydrochloric acid (for pH adjustment), and water. The effect of sodium 2-(3-pentylphenyl)acetate on heart histology in ALMS patients was also assessed by measuring short-axis (plane) longitudinal relaxation time (SAX T1). A decrease in relaxation time reflects an improvement in heart histology, such as a decrease of myocardial fibrosis, which reduces the risk of cardiac failure."}, "ALMS patients [2]": {"system": "ALMS patients", "assay": "Histological examination of adipocyte tissue artery (perivascular adipose tissue)", "conditions": "an ALMS subject; after 24 weeks of treatment with 800 mg; FIG. 3B", "experimental": "(§1) The study was a Phase 2, single-centre, single-arm, open-label study of sodium 2-(3-pentylphenyl)acetate administered at a total daily oral dose of 800 mg for up to 72 weeks in subjects with ALMS was undertaken. The initial duration of the study was 24 weeks, and subjects were offered to enrol into an extension phase of 36 or 48 weeks. The schedule of study procedures for the enrolment, intervention, and assessments for participants is outlined in FIG. 1. Sodium 2-(3-pentylphenyl)acetate was formulated in soft gelatine capsules containing 200 mg of Sodium 2-(3-pentylphenyl)acetate (amorphous powder) per capsule, polyethylene glycol 400, National Formulary (NF), hydrochloric acid (for pH adjustment), and water. Baseline histological examination of an adipocyte tissue artery (perivascular adipose tissue) in an ALMS subject was characterized by signs of dystrophy, homogenized blurred cytoplasm in smooth muscle cells, and nuclei with irregular shape (FIG. 3A)."}, "ALMS patients [3]": {"system": "ALMS patients", "assay": "Histological examination of adipocyte tissue, average adipocyte area", "experimental": "The study was a Phase 2, single-centre, single-arm, open-label study of sodium 2-(3-pentylphenyl)acetate administered at a total daily oral dose of 800 mg for up to 72 weeks in subjects with ALMS was undertaken. The initial duration of the study was 24 weeks, and subjects were offered to enrol into an extension phase of 36 or 48 weeks. The schedule of study procedures for the enrolment, intervention, and assessments for participants is outlined in FIG. 1. Sodium 2-(3-pentylphenyl)acetate was formulated in soft gelatine capsules containing 200 mg of Sodium 2-(3-pentylphenyl)acetate (amorphous powder) per capsule, polyethylene glycol 400, National Formulary (NF), hydrochloric acid (for pH adjustment), and water. Histological examination of adipocyte tissue in an ALMS subject (before study drug treatment) was characterized by hypertrophy and coalescence of adipocytes, forming giant vesicular vacuolation/steatosis (FIG. 2A). […] Decreases in average adipocyte area from baseline ranged from 11% to 26%. Of note, the largest increase in average adipocyte area from baseline occurred in Subject 826-001-012 (25%), who had ongoing medical histories of hypothyroidism, myocardial ischemia, T2D, chronic kidney disease, and dyslipidemia. This subject was also characterized as obese with a baseline BMI of 38.13 kg/m^2."}, "ALMS patients [4]": {"system": "ALMS patients", "assay": "Urinary kidney toxicity biomarkers (MCP-1, KIM-1, clusterin, cystatin C, osteopontin)", "conditions": "analyte/creatinine ratio in urine; 800 mg daily oral", "experimental": "as §1, with “[…] The levels” for “Baseline histological examination”, “these markers was assessed at baseline and after 24 weeks of treatment with sodium 2-(3-pentylphenyl)acetate” for “an adipocyte tissue artery (perivascular adipose tissue)”, “in” for “in an”, “patients, and the results are reported” for “subject was characterized by signs of dystrophy, homogenized blurred cytoplasm”, “Table 15.” for “smooth muscle cells, and nuclei with irregular shape (FIG. 3A).”"}, "[5]": {"conditions": "800 mg, Week 24, mean of subjects"}, "[6]": {"conditions": "800 mg, Week 24, median of subjects"}}, "data": [{"smiles": "CCCCCc1cccc(CC(=O)[O-])c1.[Na+]", "note": "[sodium 2-(3-pentylphenyl)acetate]", "values": [{"measurement": "Change from Baseline Basal SAX T1, Mean", "setting": "ALMS patients [1]; EP Week 36 (Week 60), N=4", "result": -84.75, "unit": "ms"}, {"measurement": "Change from Baseline Basal SAX T1, Median", "setting": "ALMS patients [1]; EP Week 36 (Week 60), N=4", "result": -80.50, "unit": "ms"}, {"measurement": "Change from Baseline Mid SAX T1, Mean", "setting": "ALMS patients [1]; EP Week 36 (Week 60), N=4", "result": -54.63, "unit": "ms"}, {"measurement": "Change from Baseline Mid SAX T1, Median", "setting": "ALMS patients [1]; EP Week 36 (Week 60), N=4", "result": -51.00, "unit": "ms"}, {"measurement": "Change from Baseline Basal SAX T1, Mean", "setting": "ALMS patients [1]; Week 24, N=9", "result": -10.67, "unit": "ms"}, {"measurement": "Change from Baseline Basal SAX T1, Median", "setting": "ALMS patients [1]; Week 24, N=9", "result": -1.50, "unit": "ms"}, {"measurement": "Change from Baseline Mid SAX T1, Mean", "setting": "ALMS patients [1]; Week 24, N=9", "result": -4.11, "unit": "ms"}, {"measurement": "Change from Baseline Mid SAX T1, Median", "setting": "ALMS patients [1]; Week 24, N=9", "result": 0.00, "unit": "ms"}, {"measurement": "mean decrease in Basal SAX T1 from baseline", "setting": "ALMS patients [1]; after 60 weeks of treatment, p=0.0274", "result": 84.75, "unit": "ms"}, {"measurement": "mean decrease in Mid SAX T1 from baseline", "setting": "ALMS patients [1]; after 60 weeks of treatment, p=0.0349", "result": 54.63, "unit": "ms"}, {"measurement": "histological examination of adipocyte tissue artery", "setting": "ALMS patients [2]", "result": "the adipocyte tissue artery looked more normal"}, {"measurement": "Average Adipocyte Area, % Change from Baseline, Mean", "setting": "ALMS patients [3]; [5]", "result": "−9", "unit": "%"}, {"measurement": "Average Adipocyte Area, Mean", "setting": "ALMS patients [3]; [5]", "result": 5550.7, "unit": "μm^2"}, {"measurement": "Average Adipocyte Area, % Change from Baseline, Median", "setting": "ALMS patients [3]; [6]", "result": "−12", "unit": "%"}, {"measurement": "Average Adipocyte Area, Median", "setting": "ALMS patients [3]; [6]", "result": 5195.1, "unit": "μm^2"}, {"measurement": "subjects in whom average adipocyte area decreased from baseline", "setting": "ALMS patients [3]; 6/9 subjects, after 24 weeks", "result": 66.7, "unit": "%"}, {"measurement": "largest increase in average adipocyte area from baseline", "setting": "ALMS patients [3]; Subject 826-001-012, after 24 weeks", "result": 25, "unit": "%"}, {"measurement": "histological examination of adipocyte tissue", "setting": "ALMS patients [3]; an ALMS subject, after 24 weeks of treatment with 800 mg, FIG. 2B", "result": "more distinct adipocytes were seen that were smaller in size with no observed coalescence"}, {"measurement": "Urinary Clusterin, Mean Fold Change from Baseline to Week 24", "setting": "ALMS patients [4]", "result": 0.66}, {"measurement": "Urinary Clusterin, mean change from Baseline to Week 24 (%)", "setting": "ALMS patients [4]", "result": "−34", "unit": "%"}, {"measurement": "Urinary Cystatin C, Mean Fold Change from Baseline to Week 24", "setting": "ALMS patients [4]", "result": 0.75}, {"measurement": "Urinary Cystatin C, mean change from Baseline to Week 24 (%)", "setting": "ALMS patients [4]", "result": "−25", "unit": "%"}, {"measurement": "Urinary KIM-1, Mean Fold Change from Baseline to Week 24", "setting": "ALMS patients [4]", "result": 0.67}, {"measurement": "Urinary KIM-1, mean change from Baseline to Week 24 (%)", "setting": "ALMS patients [4]", "result": "−33", "unit": "%"}, {"measurement": "Urinary MCP-1, Mean Fold Change from Baseline to Week 24", "setting": "ALMS patients [4]", "result": 0.85}, {"measurement": "Urinary MCP-1, mean change from Baseline to Week 24 (%)", "setting": "ALMS patients [4]", "result": "−15", "unit": "%"}, {"measurement": "Urinary Osteopontin, Mean Fold Change from Baseline to Week 24", "setting": "ALMS patients [4]", "result": 0.82}, {"measurement": "Urinary Osteopontin, mean change from Baseline to Week 24 (%)", "setting": "ALMS patients [4]", "result": "−18", "unit": "%"}]}]}
